Laboratory results from PubChem BioAssay (NCI).
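1) Cells in 96-well plates. 2) Compound, 48 h, 5 concentrations. 3) Linear interpolation between surrounding doses. 4) Unreached endpoint = highest concentration. Definition used: TGI = concentration required for complete inhibition of growth.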

Tests used:
Assay in all cases: NCI tumour cell line growth inhibition, 48 h
[1] = tested on: 786-0 renal
[2] = tested on: ACHN renal
[3] = tested on: BT-549 breast
[4] = tested on: CAKI-1 renal
[5] = tested on: COLO 205 colon
[6] = tested on: DU-145 prostate
[7] = tested on: HCT-116 colon
[8] = tested on: HCT-15 colon
[9] = tested on: HOP-62 NSCLC
[10] = tested on: K-562 leukemia
[11] = tested on: KM12 colon
[12] = tested on: LOX IMVI melanoma
[13] = tested on: M14 melanoma
[14] = tested on: MCF7 breast
[15] = tested on: MDA-MB-231 breast
[16] = tested on: MDA-MB-435
[17] = tested on: MDA-N
[18] = tested on: MOLT-4 leukemia
[19] = tested on: NCI-H23 lung
[20] = tested on: OVCAR-3 ovarian
[21] = tested on: OVCAR-5 ovarian
[22] = tested on: OVCAR-8 ovarian
[23] = tested on: PC-3 prostate
[24] = tested on: SF-295 CNS
[25] = tested on: SK-MEL-2 melanoma
[26] = tested on: SK-MEL-28 melanoma
[27] = tested on: SK-OV-3 ovarian
[28] = tested on: SNB-19 CNS
[29] = tested on: SR leukemia
[30] = tested on: SW-620 colon
[31] = tested on: TK-10 renal
[32] = tested on: UACC-257 melanoma
[33] = tested on: UACC-62 melanoma
[34] = tested on: A498 renal
[35] = tested on: A549 NSCLC
[36] = tested on: CCRF-CEM leukemia
[37] = tested on: EKVX NSCLC
[38] = tested on: HCC-2998 colon
[39] = tested on: HL-60(TB) leukemia
[40] = tested on: HOP-92 NSCLC
[41] = tested on: HS 578T breast
[42] = tested on: HT29 colon
[43] = tested on: IGROV1 ovarian
[44] = tested on: MALME-3M melanoma
[45] = tested on: NCI-H226 lung
[46] = tested on: NCI-H460 lung
[47] = tested on: NCI-H522 lung
[48] = tested on: NCI/ADR-RES ovarian
[49] = tested on: OVCAR-4 ovarian
[50] = tested on: RPMI-8226 leukemia
[51] = tested on: RXF 393 renal
[52] = tested on: SF-268 CNS
[53] = tested on: SF-539 CNS
[54] = tested on: SK-MEL-5 melanoma
[55] = tested on: SN12C renal
[56] = tested on: SNB-75 CNS
[57] = tested on: T-47D breast
[58] = tested on: U251 CNS
[59] = tested on: UO-31 renal

## O=c1[nH]c2ccc(CC(=S)N3CCCCC3)cc2s1
[1]
  TGI: > 100 µM
[2]
  TGI: > 100 µM
[3]
  TGI: > 100 µM
[4]
  TGI: > 100 µM
[5]
  TGI: > 100 µM
[6]
  TGI: > 100 µM
[7]
  TGI: > 100 µM
[8]
  TGI: > 100 µM
[9]
  TGI: > 100 µM
[10]
  TGI: > 100 µM
[11]
  TGI: > 100 µM
[12]
  TGI: > 100 µM
[13]
  TGI: > 100 µM
[14]
  TGI: > 100 µM
[15]
  TGI: > 100 µM
[16]
  TGI: > 100 µM
[17]
  TGI: > 100 µM
[18]
  TGI: > 100 µM
[19]
  TGI: > 100 µM
[20]
  TGI: > 100 µM
[21]
  TGI: > 100 µM
[22]
  TGI: > 100 µM
[23]
  TGI: > 100 µM
[24]
  TGI: > 100 µM
[25]
  TGI: > 100 µM
[26]
  TGI: > 100 µM
[27]
  TGI: > 100 µM
[28]
  TGI: > 100 µM
[29]
  TGI: > 100 µM
[30]
  TGI: > 100 µM
[31]
  TGI: > 100 µM
[32]
  TGI: > 100 µM
[33]
  TGI: > 100 µM

## N#Cc1nc(/C=C/c2cccnc2)oc1N
[1]
  TGI: > 100 µM
[34]
  TGI: > 100 µM
[35]
  TGI: > 100 µM
[2]
  TGI: > 100 µM
[4]
  TGI: > 100 µM
[36]
  TGI: > 100 µM
[5]
  TGI: > 100 µM
[6]
  TGI: > 100 µM
[37]
  TGI: > 100 µM
[38]
  TGI: > 100 µM
[7]
  TGI: > 100 µM
[8]
  TGI: > 100 µM
[39]
  TGI: > 100 µM
[9]
  TGI: > 100 µM
[40]
  TGI: > 100 µM
[41]
  TGI: > 100 µM
[42]
  TGI: > 100 µM
[43]
  TGI: > 100 µM
[10]
  TGI: > 100 µM
[11]
  TGI: > 100 µM
[12]
  TGI: > 100 µM
[13]
  TGI: > 100 µM
[44]
  TGI: > 100 µM
[14]
  TGI: > 100 µM
[15]
  TGI: > 100 µM
[16]
  TGI: > 100 µM
[17]
  TGI: > 100 µM
[18]
  TGI: > 100 µM
[45]
  TGI: > 100 µM
[19]
  TGI: > 100 µM
[46]
  TGI: > 100 µM
[47]
  TGI: > 100 µM
[48]
  TGI: > 100 µM
[20]
  TGI: > 100 µM
[49]
  TGI: > 100 µM
[21]
  TGI: > 100 µM
[23]
  TGI: > 100 µM
[50]
  TGI: > 100 µM
[51]
  TGI: > 100 µM
[52]
  TGI: > 100 µM
[24]
  TGI: > 100 µM
[53]
  TGI: > 100 µM
[25]
  TGI: > 100 µM
[26]
  TGI: > 100 µM
[54]
  TGI: > 100 µM
[27]
  TGI: > 100 µM
[55]
  TGI: > 100 µM
[28]
  TGI: > 100 µM
[56]
  TGI: > 100 µM
[29]
  TGI: > 100 µM
[30]
  TGI: > 100 µM
[57]
  TGI: > 100 µM
[31]
  TGI: > 100 µM
[58]
  TGI: > 100 µM
[32]
  TGI: > 100 µM
[33]
  TGI: > 100 µM
[59]
  TGI: > 100 µM

## CC(C)c1ccc(/C=C2\CSCC3=C2N=C2SCC(=O)N2C3c2ccc(C(C)C)cc2)cc1 (stereo not drawn)
[1]
  TGI: > 100 µM
[35]
  TGI: > 100 µM
[2]
  TGI: > 100 µM
[4]
  TGI: > 100 µM
[36]
  TGI: > 100 µM
[5]
  TGI: > 100 µM
[6]
  TGI: > 100 µM
[37]
  TGI: > 100 µM
[38]
  TGI: > 100 µM
[7]
  TGI: > 100 µM
[8]
  TGI: > 100 µM
[39]
  TGI: > 100 µM
[9]
  TGI: > 100 µM
[40]
  TGI: > 100 µM
[41]
  TGI: > 100 µM
[42]
  TGI: > 100 µM
[43]
  TGI: > 100 µM
[10]
  TGI: > 100 µM
[11]
  TGI: > 100 µM
[12]
  TGI: > 100 µM
[13]
  TGI: > 100 µM
[44]
  TGI: > 100 µM
[14]
  TGI: > 100 µM
[15]
  TGI: > 100 µM
[16]
  TGI: > 100 µM
[17]
  TGI: > 100 µM
[18]
  TGI: > 100 µM
[45]
  TGI: > 100 µM
[19]
  TGI: > 100 µM
[46]
  TGI: > 100 µM
[48]
  TGI: > 100 µM
[20]
  TGI: > 100 µM
[49]
  TGI: > 100 µM
[21]
  TGI: > 100 µM
[22]
  TGI: > 100 µM
[23]
  TGI: > 100 µM
[50]
  TGI: > 100 µM
[52]
  TGI: > 100 µM
[24]
  TGI: > 100 µM
[53]
  TGI: > 100 µM
[25]
  TGI: > 100 µM
[26]
  TGI: > 100 µM
[54]
  TGI: > 100 µM
[27]
  TGI: > 100 µM
[55]
  TGI: > 100 µM
[56]
  TGI: > 100 µM
[29]
  TGI: > 100 µM
[30]
  TGI: > 100 µM
[57]
  TGI: > 100 µM
[31]
  TGI: > 100 µM
[58]
  TGI: > 100 µM
[32]
  TGI: > 100 µM
[33]
  TGI: > 100 µM
[59]
  TGI: > 100 µM

## O=C1c2cc([N+](=O)[O-])sc2C(=O)c2c([N+](=O)[O-])csc21
[1]
  TGI: 1.66 µM
[34]
  TGI: 3.34 µM
[35]
  TGI: 3.56 µM
[2]
  TGI: 0.779 µM
[3]
  TGI: 1.93 µM
[4]
  TGI: 2.48 µM
[36]
  TGI: 0.389 µM
[5]
  TGI: 3.26 µM
[6]
  TGI: 3.07 µM
[37]
  TGI: 3.4 µM
[38]
  TGI: 2.3 µM
[7]
  TGI: 1.78 µM
[8]
  TGI: 4.41 µM
[39]
  TGI: 0.112 µM
[40]
  TGI: 0.82 µM
[43]
  TGI: 1.4 µM
[10]
  TGI: 0.399 µM
[11]
  TGI: 2.6 µM
[12]
  TGI: 0.269 µM
[13]
  TGI: 1.26 µM
[44]
  TGI: 0.753 µM
[15]
  TGI: 2.19 µM
[16]
  TGI: 0.311 µM
[17]
  TGI: 0.363 µM
[18]
  TGI: 0.484 µM
[45]
  TGI: 3.8 µM
[19]
  TGI: 2.05 µM
[46]
  TGI: 3.5 µM
[47]
  TGI: 1.68 µM
[48]
  TGI: 4.16 µM
[49]
  TGI: 2.06 µM
[21]
  TGI: 2.95 µM
[22]
  TGI: 3.04 µM
[23]
  TGI: 3.09 µM
[50]
  TGI: 0.934 µM
[51]
  TGI: 1.76 µM
[52]
  TGI: 0.994 µM
[24]
  TGI: 2.32 µM
[53]
  TGI: 1.17 µM
[25]
  TGI: 3.77 µM
[26]
  TGI: 1.92 µM
[54]
  TGI: 0.313 µM
[27]
  TGI: 3.09 µM
[55]
  TGI: 1.09 µM
[28]
  TGI: 3.02 µM
[56]
  TGI: 3.18 µM
[29]
  TGI: 0.173 µM
[30]
  TGI: 1.07 µM
[57]
  TGI: 4.09 µM
[31]
  TGI: 3 µM
[58]
  TGI: 1.01 µM
[32]
  TGI: 1.31 µM
[33]
  TGI: 1.19 µM
[59]
  TGI: 3.37 µM
